# Data published in ChEMBL document CHEMBL5154925, “Design and Optimization of Thienopyrimidine Derivatives as Potent and Selective PI3Kδ Inhibitors for the Treatment of B-Cell Malignancies” (J Med Chem, 2022).
# Calls of active or inactive are those of the source. The rule behind the calls is not given here.
# Experiments:
# [1] = Solubility of the compound in FaSSIF; assay type: physicochemical
# [2] = target: T1, Phosphatidylinositol 4,5-bisphosphate 3-kinase catalytic subunit beta isoform (Homo sapiens, UniProt P42338); assay: Inhibition of PI3Kbeta in LPA stimulated human PC-3 cells incubated for 10 mins by AlphaLISA assay; assay type: cell-based
# Pfeiffer [3] = assay: Antiproliferative activity against human Pfeiffer cells assessed as cell growth inhibition incubated for 96 hrs by cell titer glo assay; assay type: functional, cell-based
# SU-DHL-6 [4] = assay: Induction of apoptosis in human SU-DHL-6 cells assessed as apoptotic rate at 50 uM incubated for 48 hrs by annexin V-FITC staining based flow cytometry; assay type: functional
# Pfeiffer [5] = assay: Inhibition of P13K signaling pathway in human Pfeiffer cells assessed as reduction in […] incubated for 4 hrs by Western blot analysis; assay type: cell-based; conditions: dose 2-50 µM, DDE = dose-dependent effect
# [6] = target: T1, Phosphatidylinositol 4,5-bisphosphate 3-kinase catalytic subunit beta isoform; assay: Inhibition of PI3Kbeta (unknown origin) using PIP2 as substrate measured after 1 hr in presence of ATP by ADP-glo luminescence assay
# Pfeiffer [7] = assay: Induction of apoptosis in human Pfeiffer cells assessed as late apoptotic cells at 2 uM incubated for 48 hrs by annexin V-FITC staining based flow cytometry (reference value: 7.87 %); assay type: functional
# [8] = Apparent volume of distribution in ICR mouse at 3 mg/kg, iv measured upto 24 hrs by LC-MS/MS analysis; assay type: ADME, organism-based; conditions: in vivo, read-out: Vz
# [9] = target: Phosphatidylinositol 4,5-bisphosphate 3-kinase catalytic subunit alpha isoform (Mus musculus, UniProt P42337); assay: Inhibition of PI3Kalpha in IGF-1 stimulated mouse C2C12 cells incubated for 10 mins by AlphaLISA assay; assay type: cell-based
# [10] = Toxicity in nude mouse xenografted with human Pfeiffer cells assessed as effect on body weight at 75 mg/kg, po BID for 21 days and measured twice weekly; assay type: organism-based; conditions: in vivo, 504 h, time 21 day
# [11] = Plasma protein binding in mouse; assay type: ADME, cell-free; conditions: read-out: PPB (converted)
# [12] = target: Phosphatidylinositol 4,5-bisphosphate 3-kinase catalytic subunit gamma isoform (Homo sapiens, UniProt P48736); assay: Inhibition of PI3Kgamma (unknown origin) using PIP2 as substrate measured after 1 hr in presence of ATP by ADP-glo luminescence assay
# Pfeiffer [13] = assay: Antitumour activity against human Pfeiffer cells xenografted in nude mouse assessed as reduction in Ki67 expression in tumor at 5 mg/kg, ip BID for 21 days by immunohistochemical analysis; assay type: functional, organism-based; conditions: time 21.0 day
# JeKo-1 = assay: Antiproliferative activity against human JeKo-1 cells assessed as cell growth inhibition incubated for 96 hrs by cell titer glo assay; assay type: functional, cell-based; conditions: JeKo-1, 96 h
# Pfeiffer [14] = assay: Induction of apoptosis in human Pfeiffer cells assessed as viable […] cells at 2 uM incubated for 48 hrs by annexin V-FITC staining based flow cytometry (reference value: 81.14 %); assay type: functional
# [15] = Half life in ICR mouse at 30 mg/kg, po measured upto 24 hrs by LC-MS/MS analysis; assay type: ADME, organism-based; conditions: in vivo
# Pfeiffer [16] = assay: Induction of cell cycle arrest in human Pfeiffer cells assessed as accumulation at G0/G1 phase at 2 to 50 uM after 24 hrs by propidium iodide and RNAase staining based flow cytometric analysis; assay type: functional; conditions: dose 2-50 µM
# SU-DHL-6 [17] = assay: Antiproliferative activity against human SU-DHL-6 cells assessed as cell growth inhibition incubated for 96 hrs by cell titer glo assay; assay type: functional, cell-based; conditions: SU-DHL-6, 96 h
# B-cell = assay: Inhibition of PI3Kdelta dependent mouse B-cell activation assessed as reduction in ratio of CD86 and B220 level at 0.001 to 0.1 uM stimulated with IgM for 1 hr prior to compound addition and measured after 24 hrs by flow cytometry analysis; assay type: functional, cell-based; conditions: dose 0.001-0.1 µM, time 25.0 hrs
# Pfeiffer [18] = assay: Induction of apoptosis in human Pfeiffer cells assessed as late apoptotic cells at 10 uM incubated for 48 hrs by annexin V-FITC staining based flow cytometry (reference value: 7.87 %); assay type: functional
# [19] = Toxicity in nude mouse xenografted with human Pfeiffer cells assessed as effect on body weight at 5 mg/kg, ip BID for 21 days and measured twice weekly; assay type: organism-based; conditions: in vivo, 504 h, time 21 day
# Pfeiffer [20] = assay: Antitumor activity against human Pfeiffer cells xenografted in nude mouse assessed as tumor growth inhibition at 5 mg/kg, ip BID for 21 days and measured twice weekly; assay type: functional; conditions: 504 h, time 21 day, read-out: TGI
# Pfeiffer [21] = assay: Induction of apoptosis in human Pfeiffer cells assessed as necrotic cells at 50 uM incubated for 48 hrs by annexin V-FITC staining based flow cytometry (reference value: 6.62 %); assay type: functional
# Pfeiffer [22] = assay: Inhibition of P13K signaling pathway in human Pfeiffer cells assessed as reduction in AKT phosphorylation at S473 residue incubated for 4 hrs by Western blot analysis; assay type: cell-based; conditions: dose 2-50 µM, DDE = dose-dependent effect
# [23] = target: T2, Phosphatidylinositol 4,5-bisphosphate 3-kinase catalytic subunit delta isoform (Homo sapiens, UniProt O00329); assay: Inhibition of PI3Kdelta (unknown origin) using PIP2 as substrate measured after 1 hr in presence of ATP by ADP-glo luminescence assay
# T2 sequence (O00329 whole entry): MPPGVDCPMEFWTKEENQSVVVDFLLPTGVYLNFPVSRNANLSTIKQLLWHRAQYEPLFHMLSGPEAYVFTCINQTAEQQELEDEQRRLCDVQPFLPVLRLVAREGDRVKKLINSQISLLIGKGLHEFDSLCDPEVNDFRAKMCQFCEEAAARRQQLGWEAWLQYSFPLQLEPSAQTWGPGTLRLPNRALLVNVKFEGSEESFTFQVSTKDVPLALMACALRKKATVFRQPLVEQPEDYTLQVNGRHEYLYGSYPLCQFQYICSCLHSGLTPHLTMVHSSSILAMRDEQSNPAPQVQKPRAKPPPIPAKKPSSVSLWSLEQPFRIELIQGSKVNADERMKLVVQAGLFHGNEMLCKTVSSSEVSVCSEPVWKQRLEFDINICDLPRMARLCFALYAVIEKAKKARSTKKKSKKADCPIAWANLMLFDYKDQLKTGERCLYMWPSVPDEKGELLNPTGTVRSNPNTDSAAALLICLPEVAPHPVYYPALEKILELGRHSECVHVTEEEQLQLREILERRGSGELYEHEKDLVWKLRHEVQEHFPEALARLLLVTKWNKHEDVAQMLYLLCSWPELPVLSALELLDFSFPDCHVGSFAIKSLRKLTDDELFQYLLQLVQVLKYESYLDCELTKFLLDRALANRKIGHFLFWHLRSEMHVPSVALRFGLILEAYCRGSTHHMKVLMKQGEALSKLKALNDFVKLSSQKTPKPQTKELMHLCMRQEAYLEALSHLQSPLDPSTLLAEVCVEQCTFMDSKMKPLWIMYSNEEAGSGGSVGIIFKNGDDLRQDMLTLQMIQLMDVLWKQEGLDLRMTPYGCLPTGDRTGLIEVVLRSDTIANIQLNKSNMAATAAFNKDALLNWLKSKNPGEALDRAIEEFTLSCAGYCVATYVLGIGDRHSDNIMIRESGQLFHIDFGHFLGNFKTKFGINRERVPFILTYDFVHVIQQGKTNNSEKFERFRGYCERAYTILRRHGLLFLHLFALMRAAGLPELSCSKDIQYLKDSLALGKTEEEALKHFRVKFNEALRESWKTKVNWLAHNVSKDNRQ
# T1 sequence (P42338 whole entry, canonical isoform): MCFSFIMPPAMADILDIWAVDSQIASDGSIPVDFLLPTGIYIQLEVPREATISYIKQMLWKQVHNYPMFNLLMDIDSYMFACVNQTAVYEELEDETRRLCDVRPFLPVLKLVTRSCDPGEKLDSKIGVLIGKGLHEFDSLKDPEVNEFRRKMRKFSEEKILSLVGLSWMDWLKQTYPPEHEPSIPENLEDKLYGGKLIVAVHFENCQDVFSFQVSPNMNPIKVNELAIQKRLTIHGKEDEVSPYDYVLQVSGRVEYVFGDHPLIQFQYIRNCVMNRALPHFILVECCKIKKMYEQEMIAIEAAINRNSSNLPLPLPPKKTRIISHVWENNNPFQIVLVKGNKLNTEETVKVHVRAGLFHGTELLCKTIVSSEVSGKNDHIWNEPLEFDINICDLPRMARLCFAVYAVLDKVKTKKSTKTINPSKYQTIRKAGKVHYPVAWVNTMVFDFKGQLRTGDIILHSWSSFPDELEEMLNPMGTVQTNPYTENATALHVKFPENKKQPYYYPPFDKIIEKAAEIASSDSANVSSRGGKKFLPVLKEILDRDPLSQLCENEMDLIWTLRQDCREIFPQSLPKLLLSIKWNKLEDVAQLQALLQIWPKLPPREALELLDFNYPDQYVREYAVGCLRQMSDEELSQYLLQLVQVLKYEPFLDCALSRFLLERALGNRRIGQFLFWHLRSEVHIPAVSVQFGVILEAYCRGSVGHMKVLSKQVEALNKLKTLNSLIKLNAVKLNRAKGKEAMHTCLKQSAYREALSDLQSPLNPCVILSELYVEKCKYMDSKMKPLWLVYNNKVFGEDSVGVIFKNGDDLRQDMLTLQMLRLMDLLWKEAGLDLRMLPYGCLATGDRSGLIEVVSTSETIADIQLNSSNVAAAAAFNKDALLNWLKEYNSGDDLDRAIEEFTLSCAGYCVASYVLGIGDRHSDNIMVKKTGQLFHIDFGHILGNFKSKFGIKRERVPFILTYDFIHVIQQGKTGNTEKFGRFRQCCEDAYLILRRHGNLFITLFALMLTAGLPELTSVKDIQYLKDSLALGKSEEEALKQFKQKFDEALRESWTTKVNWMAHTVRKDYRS
# Sequence of Phosphatidylinositol 4,5-bisphosphate 3-kinase catalytic subunit gamma isoform (P48736 whole entry, canonical isoform): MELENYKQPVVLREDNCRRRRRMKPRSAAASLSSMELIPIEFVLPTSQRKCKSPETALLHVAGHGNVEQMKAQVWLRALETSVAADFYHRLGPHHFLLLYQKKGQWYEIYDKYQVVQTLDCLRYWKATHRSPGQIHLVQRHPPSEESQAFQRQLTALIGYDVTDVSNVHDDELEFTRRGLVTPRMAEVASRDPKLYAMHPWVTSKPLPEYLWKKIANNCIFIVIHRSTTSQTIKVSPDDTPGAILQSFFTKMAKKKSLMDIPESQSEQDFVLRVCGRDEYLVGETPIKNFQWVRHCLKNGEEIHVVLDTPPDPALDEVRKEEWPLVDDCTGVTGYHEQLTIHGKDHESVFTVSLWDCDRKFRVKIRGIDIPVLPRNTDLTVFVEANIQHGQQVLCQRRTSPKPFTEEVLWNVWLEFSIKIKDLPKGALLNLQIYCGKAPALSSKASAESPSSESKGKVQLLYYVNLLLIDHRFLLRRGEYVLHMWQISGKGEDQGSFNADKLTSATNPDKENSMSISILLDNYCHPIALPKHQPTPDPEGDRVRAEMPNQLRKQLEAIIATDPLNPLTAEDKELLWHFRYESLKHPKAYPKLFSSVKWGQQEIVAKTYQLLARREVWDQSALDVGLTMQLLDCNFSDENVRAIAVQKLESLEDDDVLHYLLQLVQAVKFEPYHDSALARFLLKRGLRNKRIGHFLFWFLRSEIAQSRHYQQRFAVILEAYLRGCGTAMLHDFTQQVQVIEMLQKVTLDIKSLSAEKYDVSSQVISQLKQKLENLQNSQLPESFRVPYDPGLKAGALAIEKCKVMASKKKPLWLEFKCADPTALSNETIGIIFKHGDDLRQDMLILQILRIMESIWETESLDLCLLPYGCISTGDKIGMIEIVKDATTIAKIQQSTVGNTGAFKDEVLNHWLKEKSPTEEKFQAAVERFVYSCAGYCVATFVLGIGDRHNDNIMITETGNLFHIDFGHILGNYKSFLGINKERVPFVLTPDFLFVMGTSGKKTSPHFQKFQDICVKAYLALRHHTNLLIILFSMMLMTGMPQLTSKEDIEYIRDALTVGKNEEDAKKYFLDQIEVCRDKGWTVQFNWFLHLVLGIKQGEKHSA
# Sequence of Phosphatidylinositol 4,5-bisphosphate 3-kinase catalytic subunit alpha isoform (P42337 whole entry, canonical isoform): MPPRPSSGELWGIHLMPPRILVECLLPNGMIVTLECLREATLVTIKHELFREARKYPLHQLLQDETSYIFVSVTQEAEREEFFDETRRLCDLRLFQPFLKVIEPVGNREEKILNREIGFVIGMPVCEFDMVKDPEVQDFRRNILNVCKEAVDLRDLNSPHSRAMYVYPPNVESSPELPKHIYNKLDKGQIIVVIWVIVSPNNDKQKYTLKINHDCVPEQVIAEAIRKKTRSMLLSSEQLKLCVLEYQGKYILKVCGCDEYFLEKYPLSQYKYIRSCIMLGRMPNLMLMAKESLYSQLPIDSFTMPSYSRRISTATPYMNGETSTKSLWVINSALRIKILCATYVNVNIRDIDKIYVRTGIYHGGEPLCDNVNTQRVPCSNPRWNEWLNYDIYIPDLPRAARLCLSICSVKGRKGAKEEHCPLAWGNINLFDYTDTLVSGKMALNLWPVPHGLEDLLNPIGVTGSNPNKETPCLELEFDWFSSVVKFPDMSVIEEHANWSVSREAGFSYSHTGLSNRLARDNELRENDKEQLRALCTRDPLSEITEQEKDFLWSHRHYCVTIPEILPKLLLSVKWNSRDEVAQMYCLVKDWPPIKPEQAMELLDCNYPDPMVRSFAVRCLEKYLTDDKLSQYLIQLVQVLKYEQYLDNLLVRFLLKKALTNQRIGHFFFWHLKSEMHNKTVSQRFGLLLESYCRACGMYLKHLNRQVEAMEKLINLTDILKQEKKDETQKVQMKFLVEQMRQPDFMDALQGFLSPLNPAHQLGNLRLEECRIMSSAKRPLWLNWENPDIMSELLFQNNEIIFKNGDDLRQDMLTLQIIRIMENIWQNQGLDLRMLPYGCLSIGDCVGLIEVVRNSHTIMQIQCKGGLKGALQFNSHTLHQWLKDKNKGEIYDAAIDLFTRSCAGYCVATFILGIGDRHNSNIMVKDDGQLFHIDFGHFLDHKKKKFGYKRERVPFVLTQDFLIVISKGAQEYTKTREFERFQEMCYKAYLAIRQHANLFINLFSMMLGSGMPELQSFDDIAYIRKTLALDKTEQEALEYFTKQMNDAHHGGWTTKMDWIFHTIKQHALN
smiles,measurement,setting,value
CCC(=O)N1CC[C@H](Nc2ncnc3sc(-c4cnc(OC)c(OC)c4)cc23)C1,solubility,[1],102 µM
same,IC50,[2],5.12 µM
same,IC50,Pfeiffer [3],0.58 µM
same,Activity,SU-DHL-6 [4],>50%
same,inhibition,Pfeiffer [5],Dde
same,IC50,[6],0.972 µM
same,Activity,Pfeiffer [7],12.63%
same,Vd,[8],5.49 L/kg
same,IC50,[9],50.2 µM
same,Activity,[10],10%
same,fraction unbound,[11],0.029
same,IC50,[12],2.68 µM
same,Activity,Pfeiffer [13],Active
same,IC50,JeKo-1,14.7 µM
same,Activity,Pfeiffer [14],76.43%
same,half-life,[15],53.4 min
same,Activity,Pfeiffer [16],Active
same,IC50,SU-DHL-6 [17],1.43 µM
same,inhibition,B-cell,Active
same,Activity,Pfeiffer [18],22.9%
same,Activity,[19],10%
same,inhibition in vivo at 5 mg/kg,Pfeiffer [20],69%
same,Activity,Pfeiffer [21],7.18%
same,inhibition,Pfeiffer [22],Dde
same,IC50,[23],0.0057 µM
